Assay results taken from article PMC3636874, “An Antedrug of the CXCL12 Neutraligand Blocks Experimental Allergic Asthma without Systemic Effect in Mice” (The Journal of Biological Chemistry, 2013).
Read-outs that look alike come from different tables or passages of the source.

How the values were obtained:
[1] = General toxicity in vivo: body and spleen weight; design: species or system mouse; conditions: for Weight, Body (percentage of control animals) / Weight, Spleen: three days
Description: General toxicity was evaluated in vivo in mice that received CN-chalcone 4 intraperitoneally at a dose of 350 μmol/kg (100 mg/kg) per day during three consecutive days. As reported in Table 2, there was no body or spleen weight loss nor any modification of cytochrome c oxidase activity in lung and heart, indicating no toxicity of CN-chalcone 4 administered at the highest active dose.

[2] = test system: Cytochrome c oxidase; test: Cytochrome c oxidase activity in lung and heart homogenates of treated mice; assay type: in vivo, mouse; conditions: intraperitoneal 350 μmol/kg per day, three days
Description: Lung and heart were homogenized separately with an UltraTurax® (IMLAB, Lille, France) in PBS, pH 7.4 (one organ in 1 ml of buffer). Lung homogenate was diluted at 1:2 and heart homogenate at 1:5 in PBS. 100 μl of each diluted homogenate were placed in a microplate, and 100 μl of assay reagent (10 mM tetramethyl-p-phenylenediamine, 2 mM sodium ascorbate, 20 mM KH2PO4) were added. The microplate was placed immediately in a microplate spectrophotometer reader, and optical density kinetic (λ = 610 nm) was measured every 20 s for 30 min. Results are expressed as Vmax/100 μg of protein (OD/min/100 μg of protein).

[3] = test system: HepG2 cells; test: Cytotoxicity, Alamar Blue (resazurin) reduction assay; assay type: cell-based, human; conditions: HepG2: 10 μM, 24 h
Description: The capacity of the cells to carry out reduction reactions after drug treatment was estimated with the fluorescent Alamar Blue reagent (AbD Serotec, Oxford, UK). Proliferating cells cause the change from the oxidized blue and non-fluorescent Alamar Blue form (resazurin) to a reduced, pink, highly fluorescent form (resorufin) that can be detected using fluorescence monitoring (excitation 560 nm; emission 590 nm). HepG2 or HEK 293 cells were seeded at a density of 30,000 cells/well on a 96-well plate and allowed to settle overnight before treatment. The dye was added to the cells together with the test substances (5-fold concentrated stock solution prepared in culture medium or in PBS with 10% HP-βCD), and the fluorescence was measured after 24-h incubation, using a Flex Station (Molecular Devices).

[4] = Chemical stability in PBS pH 7.4; assay type: physicochemical
Description: Solubility and stability studies were performed on a Gilson HPLC system with a photodiode array detector, an autosampler, and a Valco injector. Data acquisition and processing were performed with Trilution LC version 2.0 software. Measurements were carried out at 21 ± 1 °C. A 2.6-μm Kinetex column (50 × 4.6 mm) was used for stability studies in biological media, and a 5-μm Luna C18(2) column (50 × 4.6 mm) was used for solubility and chemical stability analysis. Both columns were purchased from Phenomenex. The injection volume was 20 μl, the mobile phase flow rate was 2 ml/min, and the following program was applied for the elution: 0–0.2 min, 0% B; 0.2–2.7 min, 0–100% B; 2.7–3.2 min, 100% B; 3.2–3.4 min, 100–0% B; 3.4–6.1 min, 0% B. Solvent B was HPLC grade acetonitrile (Sigma-Aldrich CHROMASOLV). The aqueous solvent contained 0.1% trifluoroacetic acid, and the detection wavelength was 365 nm.
Stability of compounds was assessed in PBS, pH 7.4, with or without 10% HP-βCD at 20 °C up to 24 h. For each compound, the 10 mM DMSO stock solution was diluted to a final incubation concentration of 10 μM with 0.1% DMSO. 20 μl of sample were removed at t0, 1, 2, 4, 6, 8, 10, and 24 h and directly injected onto the HPLC. The percentage of remaining test compound relative to t0 was measured by monitoring the peak area on the chromatogram.

[5] = target: T1, CXCL12 binding to CXCR4 (Homo sapiens, UniProt P48061); test: FRET-based binding of CXCL12-TR to EGFP-hCXCR4 (competition); conditions: dose-dependent
T1 construct: expressed in transfected cells
Description: FRET-based binding experiments were carried out as described ([26], [46]). Human embryonic kidney 293 cells expressing the fusion receptor EGFP-hCXCR4 were harvested in PBS (137 mM NaCl, 2.7 mM KCl, 4.3 mM Na2PO4·7H2O, 1.4 mM KH2PO4, pH 7.4) supplemented with 5 mM EDTA, pH 7.4, centrifuged, and resuspended in HEPES-bovine serum albumin (BSA) buffer (10 mM HEPES, 137.5 mM NaCl, 1.25 mM MgCl2, 1.25 mM CaCl2, 6 mM KCl, 10 mM glucose, 0.4 mM NaH2PO4, 0.1% bovine serum albumin (w/v), pH 7.4). Cells were used at a concentration of 10^6 cells/ml. Apparent affinities of the different ligands were determined by real-time fluorescence monitoring ligand-receptor interactions. […] Fluorescence emitted at 510 nm (excitation at 470 nm) was recorded at 21 °C using a Fluorolog 2 spectrofluorimeter (SPEX) and sampled every 0.3 s. Binding of CXCL12-TR to EGFP-labeled CXCR4 was detected as a reversible decline of emission at 510 nm, due to energy transfer from excited EGFP to TR. For competition experiments, the fluorescent chemokine was preincubated for 1 h at room temperature with or without various concentrations of each chalcone. Then the premix was added, and fluorescence was recorded until equilibrium was reached (300 s). Data were analyzed using Kaleidagraph 3.08 software (Synergy Software, Reading, PA).

[6] = design: method as in PMID 24900366; conditions: cited from earlier work
[7] = OVA-challenged mice, intraperitoneal 350 μmol/kg per day

SMILES	Weight, Body (percentage of control animals) [1, 7] [%]	Weight, Spleen [1, 7] [mg]	Weight, Body (percentage of control animals) ([1]; mice without OVA, intraperitoneal 350 μmol/kg (100 mg/kg) per day, carboxymethylcellulose) [%]	Weight, Spleen ([1]; mice without OVA, intraperitoneal 350 μmol/kg per day) [mg]	general toxicity in vivo (body and spleen weight, cytochrome c oxidase activity in lung and heart) ([1]; mice, intraperitoneal 350 μmol/kg (100 mg/kg) per day during three consecutive days)	Cytochrome c oxidase (Vmax), Heart (×10^3) ([2]; OVA-challenged mice)	Cytochrome c oxidase (Vmax), Lung (×10^2) ([2]; OVA-challenged mice)	Cytochrome c oxidase (Vmax), Heart (×10^3) ([2]; mice without OVA)	Cytochrome c oxidase (Vmax), Lung (×10^2) ([2]; mice without OVA)	toxic effect in vivo or in HepG2 cells in vitro [3]	half-life at 10 μM ([4]; PBS pH 7.4, 20 °C, read-out: Stability half-life (t1/2), PBS (converted)) [h]	half-life at 10 μM ([4]; PBS with 10% HP-βCD, PBS pH 7.4 with 10% HP-βCD, 20 °C, read-out: Stability half-life (t1/2), PBS, 10% β-cyclodextrine (converted)) [h]	concentration giving maximal inhibition of CXCL12 binding to CXCR4 [5] [µM]	Stability half-life (t1/2), PBS ([6]; PBS pH 7.4) [h]	Stability half-life (t1/2), PBS, 10% β-cyclodextrine ([6]; PBS with 10% HP-βCD) [h]	percentage of starting molecule recovered, PBS ([6]; at 10 h) [%]	percentage of starting molecule recovered, PBS, 10% β-cyclodextrine ([6]; at 10 h) [%]
COc1cc(/C=C(\C#N)C(=O)c2ccc(Cl)cc2)ccc1O [CN-chalcone 4, (E)-2-(4-chlorobenzoyl)-3-(4-hydroxy-3-methoxyphenyl)acrylonitrile]	99.6 ± 6	123 ± 4	99.6 ± 6	125 ± 11	no toxicity	29.9 ± 3.5 OD/min/100 μg of protein (×10^	12.7 ± 1.6 OD/min/100 μg of protein (×10^	28.5 ± 3.2 OD/min/100 μg of protein (×10^	13.8 ± 2.8 OD/min/100 μg of protein (×10^	neither the reactants nor carbonitrile-chalcone 4 display any toxic effect	6	16.3	> 1				
COc1cc(/C=C/C(=O)c2ccc(Cl)cc2)ccc1O [chalcone 4]														> 10	> 10	98	95
